Where “and” joins values, the source holds several entries; their conditions need not be identical. Equal values may be shown once. Entries after “also recorded” stand apart in the source; their conditions may differ.
Legend:
[1] = test system: mice; details: known from literature (Munday-Finch); cited from earlier work
[2] = biological target: T1, α+β1 BK channels (Homo sapiens, UniProt Q12791); assay: Patch clamp of α+β1 BK channels expressed in human embryonic kidney cells; assay type: cell-based; details: for IC50: IC50, α + β1, +150 mV, 10 μM internal free calcium; for h = Hill coefficient: α + β1
T1 construct: expressed in transfected cells; host or cells: human embryonic kidney cells (HEK293)
T1 sequence (Q12791 whole entry): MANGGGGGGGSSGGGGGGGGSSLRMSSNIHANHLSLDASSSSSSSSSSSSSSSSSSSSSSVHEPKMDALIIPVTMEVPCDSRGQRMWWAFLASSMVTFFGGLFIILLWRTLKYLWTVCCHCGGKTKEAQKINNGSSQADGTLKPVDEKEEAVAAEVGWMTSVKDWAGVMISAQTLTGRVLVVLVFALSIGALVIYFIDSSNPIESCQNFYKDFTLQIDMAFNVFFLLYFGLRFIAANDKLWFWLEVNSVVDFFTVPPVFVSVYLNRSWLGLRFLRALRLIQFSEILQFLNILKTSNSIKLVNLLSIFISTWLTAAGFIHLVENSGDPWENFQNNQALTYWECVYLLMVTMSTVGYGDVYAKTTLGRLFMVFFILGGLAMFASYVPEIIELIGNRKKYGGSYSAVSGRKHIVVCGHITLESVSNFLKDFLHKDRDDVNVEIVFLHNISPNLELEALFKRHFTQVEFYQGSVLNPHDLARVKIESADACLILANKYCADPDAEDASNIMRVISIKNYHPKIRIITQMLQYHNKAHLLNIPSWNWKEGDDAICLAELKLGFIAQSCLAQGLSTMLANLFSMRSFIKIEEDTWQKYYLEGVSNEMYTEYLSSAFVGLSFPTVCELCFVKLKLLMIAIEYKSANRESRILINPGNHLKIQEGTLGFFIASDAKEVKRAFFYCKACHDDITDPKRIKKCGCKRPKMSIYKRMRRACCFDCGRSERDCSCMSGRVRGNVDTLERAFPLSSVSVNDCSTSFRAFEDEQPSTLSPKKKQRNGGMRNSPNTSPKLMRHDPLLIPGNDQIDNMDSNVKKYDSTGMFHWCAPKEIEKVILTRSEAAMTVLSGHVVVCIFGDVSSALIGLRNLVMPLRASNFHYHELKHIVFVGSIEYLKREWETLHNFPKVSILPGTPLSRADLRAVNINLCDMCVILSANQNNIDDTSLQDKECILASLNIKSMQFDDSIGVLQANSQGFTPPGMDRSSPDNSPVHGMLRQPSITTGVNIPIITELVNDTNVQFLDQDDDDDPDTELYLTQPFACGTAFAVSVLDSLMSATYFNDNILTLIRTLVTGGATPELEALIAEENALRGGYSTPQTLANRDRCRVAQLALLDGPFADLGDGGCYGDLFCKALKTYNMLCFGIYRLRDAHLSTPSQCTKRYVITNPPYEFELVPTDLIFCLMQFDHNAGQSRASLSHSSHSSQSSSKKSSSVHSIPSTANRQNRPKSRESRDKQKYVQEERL
T1 sequence (Q16558 whole entry partner): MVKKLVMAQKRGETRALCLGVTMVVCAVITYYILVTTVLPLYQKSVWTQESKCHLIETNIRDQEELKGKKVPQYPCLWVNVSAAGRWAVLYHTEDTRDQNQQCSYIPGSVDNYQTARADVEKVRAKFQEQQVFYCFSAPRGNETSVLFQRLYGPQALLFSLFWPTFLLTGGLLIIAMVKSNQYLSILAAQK
Description: (§1) Current amplitude (I′) 5 minutes after addition of increasing lolitriol concentrations, shown as a fraction of the control response. Lolitriol was applied to α+β1 channels (solid circles) and to α+β4 channels (open circles). 31-epilolitrem B was applied to α+β1 channels (solid triangles) and to α+β4 channels (open triangles). Shaded triangles are data points from a single cell to which the curve was fitted. Lolitrem B was applied to hSlo channels (solid squares) a previous study and is shown for comparison. The current response was averaged over the last half of a voltage pulse to +150 mV for 50 ms, with 10 μM internal free calcium. The vertical bars show ±1 S.E.M. in 3 or more cells. The curve is a fit of a Hill-type equation to the data.
(§2) We used BK channels containing beta subunits that are expressed in smooth muscle ([…]) and brain (β4). BK channels with subunit combinations α+β1 or α+β4 were expressed in human embryonic kidney cells and their function assayed by patch clamping.
(§3) hSlo α subunit large conductance calcium-activated potassium channels in pcDNA3 (Meera et al., 1997) together with the human β4 subunit in pEGFP-N1 were transiently expressed in human embryonic kidney cells (HEK293). HEK cells were grown in a mix of DMEM (Dulbecco's Modified Eagle Medium) and 2.5 mM HEPES (N-[2-Hydroxyethyl]-piperazine-N′-[2-ethanesulfonic acid]), supplemented with minimal essential amino acids and 10% fetal bovine serum. Cells were subsequently plated onto 24-well plates, grown to 95% confluency and transfected 24 hours later with 10 μg of hSlo, 8 μg of β4 and 2 μl Lipofectamine 2000™. Cells were plated onto cover slips 24 hours later. Transfected cells expressed green fluorescent protein and were identified under UV light by their fluorescence.

[3] = biological target: T2, α+β4 BK channels (hSlo α subunit with human β4 subunit) (Homo sapiens, UniProt Q12791); assay: Patch clamp of α+β4 BK channels expressed in human embryonic kidney cells; assay type: cell-based; details: for h = Hill coefficient: α + β4
T2 construct: expressed in transfected cells; host or cells: HEK293 (transient)
T2 sequence (Q12791 whole entry): as the sequence (Q12791 whole entry) above
T2 sequence (Q86W47 whole entry partner): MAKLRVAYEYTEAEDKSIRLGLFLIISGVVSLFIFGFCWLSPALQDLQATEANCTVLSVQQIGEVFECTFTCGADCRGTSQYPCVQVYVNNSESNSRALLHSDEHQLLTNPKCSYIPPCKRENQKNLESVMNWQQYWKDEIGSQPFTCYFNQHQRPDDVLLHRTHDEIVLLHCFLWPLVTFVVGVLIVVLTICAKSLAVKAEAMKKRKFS
Description: as §1, §2, §3

[4] = biological target: T3, BK channel (Homo sapiens, UniProt Q12791); assay: Degree of antagonist inhibition of BK channels, subunit composition not stated; assay type: cell-based
T3 sequence (Q12791 whole entry): as the sequence (Q12791 whole entry) above

[5] = biological target: T4, hSlo α subunit large conductance calcium-activated potassium (BK) channels (Homo sapiens, UniProt Q12791); assay: Inside-out patch clamp of hSlo α subunit BK channels expressed in HEK293 cells; assay type: cell-based; details: for BK channel current as fraction of the control response: α subunit
T4 construct: expressed in transfected cells; host or cells: HEK293 (transient; co-transfected with CD4 as a marker)
T4 sequence (Q12791 whole entry): as above
Description: In this experiment, hSlo α subunit large conductance calcium-activated potassium (BK) channels with an N-terminal c-myc tag in the mammalian vector pcDNA (Meera et al, 1997) were transiently expressed in human embryonic kidney cells (cell type HEK293).
Human embryonic kidney cells were grown in a mix of DMEM (Dulbecco's Modified Eagle Medium, GibcoBRL Cat#12100-038) and 2.5 mM HEPES (N-[2-Hydroxyethyl]piperazine-N′-[2-ethanesulfonic acid]), supplemented with minimal essential amino acids and 10% fetal bovine serum.
Cells were subsequently plated into 24-well plates, grown to 95% confluency and transfected 24 hours later with 10 μg of hSlo and 2 μg CD4 (pcDNA) and 2 µl Lipofectamine 2000™.
Cells were plated onto cover slips 24 hours later. CD4 antibody-labelled beads were used to identify transfected cells. Macroscopic currents were recorded from excised inside-out patches at 3 days post-transfection.
A stock of 100 μM Lolitrem B was made up in dimethyl sulfoxide (DMSO). This was diluted to the appropriate concentration in electrophysiological solutions.
The bath solution that was applied to the internal side of the cell membrane of the inside-out membrane patch was (mM): 140 KMeSO3, 2 KCl, 20 HEPES (N-[2-Hydroxyethyl]piperazine-N′-[2-ethanesulfonic acid]), 5 HEDTA (N-([2-hydroxyethyl)ethylene-diaminetriacetic acid) and 3.65 CaCl2 to give 10 μM free calcium with a pH of 7.2.
The pipette solution applied to the extemal side of the cell membrane of the inside-out membrane patch was (mM): 140 KMeSO3, 2 KCl, 20 HEPES, and 2 MgCl2, with a pH of 7.2.
Macroscopic currents were recorded in an inside-out patch-clamp configuration using an amplifier, interface and data collection software. Data were filtered at 5 kHz and sampled at 20 μs intervals. Fast capacitance compensation was used to cancel the fast transient. Leak subtraction was used although the background potassium current was small.
Channels were activated by voltage pulses to +150 mV every minute in the presence of 10 μM free calcium. Control current responses were recorded over 5 minutes. Only patches that remained stable over this time were used in experiments.
Each concentration of lolitrem B was applied for 5 minutes or until the current response had stabilised and fractional block calculated as the decrease in current as a fraction of the control. The current amplitude was the mean current over the last half of the voltage pulse to +150 mV.

[6] = biological target: T3, BK channel; details: McMillan et al., 2003; cited from earlier work

Row | Compound | tremorgenicity [1] | IC50 [2] | h = Hill coefficient [2] | h = Hill coefficient [3] | BK channel current as fraction of the control response ([5]; 100 nM) | further results
1 | CC(C)=CC1OC2C(OC3CCC4(C)C5(C)c6[nH]c7ccc8c(c7c6CC5CCC4(O)C34OC24)CC2C(C8=O)C(C)(C)OC2(C)C)C(C)(C)O1 (centres unmarked) [31-epilolitrem B] | non-tremorgenic | ~58 nM and 58 nM | 2.7 | 2.2 | 0.06±0.02 | degree of antagonist inhibition ([4]; approximately 200 nM): approximately 100%; current response as fraction of control after wash-out ([5]; after 100 nM, wash-out with control solution for 26 minutes, one experiment): 0.59
2 | CC(C)=CCOC(C)(C)[C@H]1O[C@H]2CC[C@@]3(C)[C@@](O)(CC[C@H]4Cc5c([nH]c6ccc7c(c56)C[C@@H]5[C@@H](C7=O)C(C)(C)OC5(C)C)[C@@]43C)[C@]23O[C@@H]3[C@@H]1O [lolitrem E] | partial-tremorgenic |  |  |  | 0.01 | degree of antagonist inhibition ([5]; approximately 100 nM): approximately 100%
3 | CC(C)=CC1OC2C(OC3CCC4(C)C5(C)c6[nH]c7ccc8c(c7c6CC5CCC4(O)C34OC24)CC2C(C8=O)C(C)(C)OC2(C)C)C(C)(C)O1 (centres unmarked) [lolitrem B] | tremorgenic |  |  |  |  | inhibition of the BK channel current (in words) ([5]; 2 nM): partial inhibition; reversal of current block by wash-out ([5]; 10 nM or greater, wash-out with control solution for 30 minutes at 4 ml/min): not able to be reversed; also recorded: could not be reversed; inhibition of the BK channel current (in words) ([5]; 20 nM applied to the perfusion bath): complete inhibition; IC50 ([5]; IC50 (concentration of half maximal inhibition), α alone, voltage pulse to +150 mV, 10 μM free calcium, Hill equation fit, 11 cells): 3.7 nM and ~3.7 nM; degree of antagonist inhibition ([5]; approximately 20 nM): approximately 97%; h = Hill coefficient ([5]; α alone): 1.7
4 | CC(C)(O)C1OC2CCC3(C)C4(C)c5[nH]c6ccc7c(c6c5CC4CCC3(O)C23OC3C1O)CC1C(C7=O)C(C)(C)OC1(C)C (centres unmarked) [lolitriol] | non-tremorgenic | ~195 nM and 195 nM | 2.3 | 2.7 | 0.29 | concentration required to inhibit α+β4 channels compared with α+β1 channels ([3]; α+β4 versus α+β1): Twice; degree of antagonist inhibition ([4]; approximately 1000 nM): approximately 100%; BK channel current as fraction of the control response ([5]; 200 nM): 0.25; current response as fraction of control after wash-out ([5]; wash-out with control solution for 30 minutes at 4 ml/min): 0.86
5 | CC1(C)OC(C)(C)C2C(=O)c3ccc4[nH]c5c(c4c3CC21)C[C@@H]1CC[C@@]2(O)C3=CC(=O)[C@@H](C(C)(C)O)OC3CC[C@]2(C)[C@@]51C (some centres unmarked) [lolilline] | non-tremorgenic |  |  |  |  | 
6 | desoxypaxilline [reference compound] | non-tremorgenic |  |  |  |  | concentration needed for the same degree of BK inhibition as paxilline [6]: 24 times

Source: patent US20070191465A1, “Channel blocking compounds” (priority 2003, published 2007)
